Results from BindingDB's records for doi:10.1016/j.bmcl.2005.06.044 (The University of Tokyo, 2005).

Test: Androgen antagonistic activity as inhibitory concentration against testosterone-induced SC-3 cell proliferation

Row | Structure (SMILES) | IC50
1 | CCC(CC)(c1ccc(OC[C@H](O)CO)c(C)c1)c1ccc(OC[C@H](O)C(C)(C)C)c(C)c1 [(R)-3-(4-(3-(4-((R)-2-hydroxy-3,3-dimethylbutoxy)-3-methylphenyl)pentan-3-yl)-2-methylphenoxy)propane-1,2-diol] | 19 nM
2 | CCC(CC)(c1ccc(NCC(=O)C(C)(C)C)c(C)c1)c1ccc(NCC(=O)C(C)(C)C)c(C)c1 | 1000 nM
3 | CCC(CC)(c1ccc(NCC(O)CO)c(C)c1)c1ccc(OCC(O)C(C)(C)C)c(C)c1 (centres undefined) [3-(4-{1-Ethyl-1-[4-(2-hydroxy-3,3-dimethyl-butoxy)-3-methyl-phenyl]-propyl}-2-methyl-phenylamino)-propane-1,2-diol] | 9 nM
4 | CCC(CC)(c1ccc(O)c(C)c1)c1ccc(NCC(=O)C(C)(C)C)c(C)c1 | 3500 nM

Further lines, results first:

Row | IC50 | Structure (SMILES)
5 | 820 nM | CCC(CC)(c1ccc(NCCC(C)(C)O)c(C)c1)c1ccc(OCC(=O)C(C)(C)C)c(C)c1 [1-(4-{1-Ethyl-1-[4-(3-hydroxy-3-methyl-butylamino)-3-methyl-phenyl]-propyl}-2-methyl-phenoxy)-3,3-dimethyl-butan-2-one]
6 | 1900 nM | CCC(CC)(c1ccc(OCC(=O)C(C)(C)C)c(C)c1)c1ccc(OCC(=O)C(C)(C)C)c(C)c1 [LG190155]
7 | 1200 nM | CCC(CC)(c1ccc(NCC(=O)C(C)(C)C)c(C)c1)c1ccc(OCC(=O)C(C)(C)C)c(C)c1
8 | 1000 nM | CCC(CC)(c1ccc(NCC(O)C(C)(C)C)c(C)c1)c1ccc(NCC(O)C(C)(C)C)c(C)c1 (centres undefined)
9 | 6800 nM | CCC(CC)(c1ccc(NCCC(C)(C)O)c(C)c1)c1ccc(NCCC(C)(C)O)c(C)c1 [4-(4-{1-Ethyl-1-[4-(3-hydroxy-3-methyl-butylamino)-3-methyl-phenyl]-propyl}-2-methyl-phenylamino)-2-methyl-butan-2-ol]
